The text below walks through data of US10774052B2, “Heteroaryl compounds and uses thereof” (Celgene CAR LLC, priority 2013, dated 2020).

Like-named read-outs stand apart in the source and are kept apart here. A value given as a limit tells only on which side of the number the result lay.

Assay [1] has as its system pFGFR4 in MDA-MB-453 cells. The experiment in a line: FGFR4 signaling, pFGFR4 (MDA); Western blot (Method A), MSD (Method B), ELISA (Method C). The class given is cell-based. The settings on record: Homo sapiens, Method B (MSD) for signaling EC50 determination. The procedure: The MDA-MB-453 protein concentrations were determined by a BCA Assay (Pierce, Rockford, Ill.). A sample of 50-100 μg of each lysate was separated by a 4-12% gradient (SDS-PAGE (Invitrogen)), transferred to a nitrocellulose membrane (Biorad, Hercules, Calif.), and probed with specific antibodies. Phospho-protein signals were quantitated using Odyssey Infrared Imaging (Li-Cor Biosciences).
To assess phospho-FGFR signaling, the blots were probed with anti-Phospho-FGFR (Y653/Y654) and total anti-FGFR antibodies. The phospho-FGFR signal was normalized to total FGFR expression for each sample.

For a further assay, the system named is pFGFR4 in Huh7 cells. Kind of assay: FGFR4 signaling, pFGFR4 (Huh); MSD (Method B). Format: cell-based. Conditions: Homo sapiens.
The mark [2] stands for this setting: Huh-7, Huh7 cells, read-out: Signaling EC50 (nM) pFGFR4 (Huh).
The mark [3] stands for this setting: Huh-7, read-out: Signaling EC50 (nM) pFGFR4 (Huh).

In the case of `C=CC(=O)Nc1ccccc1Nc1ncc2c(n1)N(Cc1cccnc1)C(=O)N(c1cc(OC)cc(OC)c1)C2` [Compound I-44], the EC50 (in assay [1] (MDA-MB-453 cells); with pFGFR4 in Huh7 cells (setting [2])) was under 100 nM each time. Regarding `C=CC(=O)Nc1ccccc1Nc1ncc2c(n1)N(CC(F)F)C(=O)N(c1cc(OC)cc(OC)c1)C2` [Compound I-99], the EC50 (in assay [1] (MDA-MB-453 cells); with pFGFR4 in Huh7 cells (setting [2])) was 101 to 500 nM in each case.

As to `C=CC(=O)Nc1ccccc1Nc1ncc2c(n1)N(C)C(=O)N(c1c(Cl)cccc1Cl)C2` [Compound I-83], the concentration giving a half-maximal response (EC50) (in assay [1] (MDA-MB-453 cells); with pFGFR4 in Huh7 cells (setting [2])) was 101 to 500 nM in each case.

`C=CC(=O)NC1CCCCC1Nc1ncc2c(n1)N(CC(F)F)C(=O)N(c1c(F)c(OC)cc(OC)c1F)C2` (stereo not shown) [Compound I-115]: the EC50 (in assay [1] (MDA-MB-453 cells); in the assay on pFGFR4 in Huh7 cells (setting [2])) was 101 to 500 nM throughout.

With `C=CC(=O)NC1CCCCC1Nc1ncc2c(n1)N(C)C(=O)N(c1cc(OC)cc(OC)c1Cl)C2` (racemic) [Compound I-76], the EC50 is 501 to 999 nM in assay [1] (MDA-MB-453, MDA-MB-453 cells) and over 1000 nM in the assay on pFGFR4 in Huh7 cells (setting [2]). In the case of `C=CC(=O)NC1CN(C(C)=O)CC1Nc1ncc2c(n1)N(C)C(=O)N(c1c(Cl)c(OC)cc(OC)c1Cl)C2` (racemic) [Compound I-139], the EC50 (in assay [1] (MDA-MB-453 cells); in the assay with pFGFR4 in Huh7 cells (setting [2])) was 101 to 500 nM each time. For `C=CC(=O)N[C@H]1CCCC[C@H]1Nc1ncc2c(n1)N(C)C(=O)N(c1c(F)c(OC)cc(OC)c1F)C2` [Compound I-143], the EC50 (in assay [1] (MDA-MB-453 cells); with pFGFR4 in Huh7 cells (setting [2])) was 101 to 500 nM in each case. Take `C=CC(=O)Nc1cc(-c2nnnn2C)ccc1Nc1ncc2c(n1)N(C)C(=O)N(c1c(Cl)c(OC)cc(OC)c1Cl)C2` [Compound I-153]: the EC50 (in assay [1] (MDA-MB-453 cells); in the assay with pFGFR4 in Huh7 cells (setting [2])) was under 100 nM each time. `C=CC(=O)Nc1ccccc1Nc1ncc2c(n1)N(Cc1cccc(N)c1)C(=O)N(c1c(Cl)c(OC)cc(OC)c1Cl)C2` [Compound I-26]: the EC50 (in assay [1] (MDA-MB-453 cells); with pFGFR4 in Huh7 cells (setting [2])) was under 100 nM each time.

In the case of `C=CC(=O)Nc1cc(N(C)CCOC)ccc1Nc1ncc2c(n1)N(C)C(=O)N(c1cc(OC)cc(OC)c1)C2` [Compound I-21], the EC50 (in assay [1] (MDA-MB-453 cells); in the assay on pFGFR4 in Huh7 cells (setting [2])) was under 100 nM in each case. Consider `C=CC(=O)NC1CCCCC1Nc1ncc2c(n1)N(CCF)C(=O)N(c1c(Cl)c(OC)cc(OC)c1Cl)C2` (racemic) [Compound I-106], for which the EC50 was 101 to 500 nM in assay [1] (MDA-MB-453, MDA-MB-453 cells) and 101 to 500 nM in the assay on pFGFR4 in Huh7 cells (setting [2]). For the molecule `C=CC(=O)Nc1ccccc1Nc1ncc2c(n1)N(C1CCCN(C(=O)OC(C)(C)C)C1)C(=O)N(c1cc(OC)cc(OC)c1)C2` (stereo not shown) [Compound I-36], the EC50 (in assay [1] (MDA-MB-453 cells); in the assay on pFGFR4 in Huh7 cells (setting [2])) was 101 to 500 nM throughout. Take `C=CC(=O)Nc1cc(N2CCN(C(=O)CCCC(=O)NCCCOCCOCCOCCCNC(=O)CCCC[C@@H]3SC[C@@H]4NC(=O)N[C@@H]43)CC2)ccc1Nc1ncc2c(n1)N(C)C(=O)N(c1c(Cl)c(OC)cc(OC)c1Cl)C2` [Compound I-127]: the 50% effective concentration (EC50) in the assay on pFGFR4 in Huh7 cells (setting [3]) lay in the range of 101 to 500 nM. Consider `C=CC(=O)Nc1cc(C(F)(F)F)ccc1Nc1ncc2c(n1)N(Cc1ccccc1)C(=O)N(c1c(Cl)c(OC)cc(OC)c1Cl)C2` [Compound I-6], for which the EC50 in the assay on pFGFR4 in Huh7 cells (setting [2]) was 101 to 500 nM. In the case of `C=CC(=O)N(C)C1COCC1Nc1ncc2c(n1)N(C)C(=O)N(c1c(Cl)c(OC)cc(OC)c1Cl)C2` (stereo not shown) [Compound I-218], the EC50 in the assay on pFGFR4 in Huh7 cells (setting [2]) is over 1000 nM. Take `C=CC(=O)NC1COCC1Nc1ncc2c(n1)N(C)C(=O)N(c1cc(C(=O)Nc3cccc(C(C)(C)C#N)c3)ccc1Cl)C2` (stereo not shown) [Compound I-246]: the EC50 with pFGFR4 in Huh7 cells (setting [2]) was 101 to 500 nM. Still for that read-out and setting: the figure for `C=CC(=O)NC1COCC1Nc1ncc2c(n1)N(C)C(=O)N(c1c(F)c(OC)cc(OC)c1F)C2` (stereo not shown) [Compound I-198] is under 100 nM. With `C=CC(=O)NC1COCC1Nc1ncc2c(n1)N(Cc1cc[nH]n1)C(=O)N(c1c(Cl)c(OC)cc(OC)c1Cl)C2` (stereo not shown) [Compound I-216], the EC50 in the assay on pFGFR4 in Huh7 cells (setting [2]) lay within 101 to 500 nM.

For the molecule `C=CC(=O)N[C@H]1CCCC[C@H]1Nc1ncc2c(n1)N(Cc1cscn1)C(=O)N(c1c(Cl)c(OC)cc(OC)c1Cl)C2` [Compound I-114], in the assay on pFGFR4 in Huh7 cells (setting [3]), the EC50 is 101 to 500 nM. In the case of `C=CC(=O)NC1CCCCC1Nc1ncc2c(n1)N(Cc1cccc(NC(=O)CC)c1)C(=O)N(c1c(Cl)c(OC)cc(OC)c1Cl)C2` (racemic) [Compound I-8], the EC50 in the assay with pFGFR4 in Huh7 cells (setting [2]) was in the range of 101 to 500 nM. For `C=CC(=O)NC1COCC1Nc1ncc2c(n1)N(CC)C(=O)N(c1c(Cl)c(OC)cc(OC)c1Cl)C2` (stereo not shown) [Compound I-217], the EC50 with pFGFR4 in Huh7 cells (setting [2]) is under 100 nM. Same read-out and setting: the figure for `C=CC(=O)Nc1cc(C)ccc1Nc1ncc2cc(-c3c(Cl)c(OC)cc(OC)c3Cl)c(=O)n(C)c2n1` [Compound I-243] is under 100 nM. With `C=CC(=O)N[C@H]1CCCC[C@H]1Nc1ncc2c(n1)N(C)C(=O)N(c1cc(OC)c(OC)c(OC)c1)C2` [Compound I-220], the EC50 with pFGFR4 in Huh7 cells (setting [2]) is over 1000 nM. As to `C=CC(=O)NC1COCC1Nc1ncc2c(n1)N(Cc1cnn(C)c1)C(=O)N(c1c(Cl)c(OC)cc(OC)c1Cl)C2` (stereo not shown) [Compound I-213], in the assay with pFGFR4 in Huh7 cells (setting [2]), the EC50 was under 100 nM. On the same count and under the same terms, the figure for `C=CC(=O)NC1COCC1Nc1ncc2c(n1)N(C)C(=O)N(c1c(Cl)c(OC)c(OC)c(OC)c1Cl)C2` (stereo not shown) [Compound I-208] is over 1000 nM. `C=CC(=O)NC1COCC1Nc1ncc2c(n1)N(Cc1cn[nH]c1)C(=O)N(c1c(Cl)c(OC)cc(OC)c1Cl)C2` (stereo not shown) [Compound I-214]: in the assay with pFGFR4 in Huh7 cells (setting [2]), the EC50 was in the range of 101 to 500 nM. With `C=CC(=O)N[C@H]1CCCC[C@H]1Nc1ncc2c(n1)N(C)C(=O)N(c1c(Cl)c(OC)cc(OC)c1Cl)C2` [Compound I-95], in the assay on pFGFR4 in Huh7 cells (setting [3]), the EC50 fell in the range of 101 to 500 nM.

Take `C=CC(=O)NC1CN(c2ccn(C)n2)CC1Nc1ncc2c(n1)N(C)C(=O)N(c1c(Cl)c(OC)cc(OC)c1Cl)C2` (stereo not shown) [Compound I-204]: the EC50 in the assay on pFGFR4 in Huh7 cells (setting [2]) is under 100 nM. Take `C=CC(=O)Nc1ccccc1Nc1ncc2cc(-c3c(Cl)c(OC)cc(OC)c3Cl)c(=O)n(C)c2n1` [Compound I-244]: the EC50 in the assay with pFGFR4 in Huh7 cells (setting [2]) was under 100 nM. On to `C=CC(=O)NC1COCC1Nc1ncc2c(n1)N(C)C(=O)N(c1c(F)c(OC)cc(OC)c1Cl)C2` (stereo not shown) [Compound I-206], for which, in the assay on pFGFR4 in Huh7 cells (setting [2]), the EC50 was under 100 nM. For the molecule `C=CC(=O)NC1COCC1Nc1ncc2c(n1)N(Cc1cscn1)C(=O)N(c1c(Cl)c(OC)cc(OC)c1Cl)C2` (stereo not shown) [Compound I-210], in the assay on pFGFR4 in Huh7 cells (setting [2]), the EC50 is under 100 nM. As for `C=CC(=O)N[C@H]1CCCC[C@H]1Nc1ncc2cc(-c3c(Cl)c(OC)cc(OC)c3Cl)c(=O)n(C)c2n1` [Compound I-223], the EC50 in the assay on pFGFR4 in Huh7 cells (setting [3]) was under 100 nM. With `C=CC(=O)NC1CS(=O)(=O)CC1Nc1ncc2c(n1)N(C)C(=O)N(c1c(Cl)c(OC)cc(OC)c1Cl)C2` (stereo not shown) [Compound I-200], in the assay on pFGFR4 in Huh7 cells (setting [2]), the EC50 lay within 101 to 500 nM. Same read-out and setting: the figure for `C=CC(=O)N[C@H]1CCCC[C@H]1Nc1ncc2c(n1)N(C)C(=O)N(c1c(Cl)c(OC)c(OC)c(OC)c1Cl)C2` [Compound I-221] is over 1000 nM. Take `C=CC(=O)Nc1ccccc1Nc1ncc2c(n1)N(C1CCN(CC)CC1)C(=O)N(c1cc(OC)cc(OC)c1)C2` [Compound I-80]: the EC50 in the assay on pFGFR4 in Huh7 cells (setting [3]) is over 1000 nM. Turning to `C=CC(=O)Nc1ccccc1Nc1ncc2c(n1)N(C1CCNCC1)C(=O)N(c1cc(OC)cc(OC)c1)C2` [Compound I-81], the EC50 in the assay on pFGFR4 in Huh7 cells (setting [3]) is over 1000 nM. Consider `C=CC(=O)NC1COCC1Nc1ncc2c(n1)N(CC1CC1)C(=O)N(c1c(Cl)c(OC)cc(OC)c1Cl)C2` (stereo not shown) [Compound I-212], for which the EC50 in the assay on pFGFR4 in Huh7 cells (setting [2]) was under 100 nM. On to `C=CC(=O)NC1COCC1Nc1ncc2c(n1)N(C)C(=O)N(c1ccc(OC)cc1)C2` (stereo not shown) [Compound I-209], for which the EC50 with pFGFR4 in Huh7 cells (setting [2]) was over 1000 nM. The same measure, in the same setting: the same measure for `C=CC(=O)NC1CN(c2ccncn2)CC1Nc1ncc2c(n1)N(C)C(=O)N(c1c(Cl)c(OC)cc(OC)c1Cl)C2` (stereo not shown) [Compound I-201]: 101 to 500 nM; for `C=CC(=O)Nc1cc(F)ccc1Nc1ncc2cc(-c3c(Cl)c(OC)cc(OC)c3Cl)c(=O)n(C)c2n1` [Compound I-245]: under 100 nM.
